Data published in ChEMBL document CHEMBL5370670, “Anti-MRSA Dimeric and Brominated Phenyltetracenoids Produced by Streptomyces morookaense SC1169” (J Nat Prod, 2023).
In brackets after ≈: the same amount, converted by molar mass. Structures can show the parent of a compound that is named as a salt. Each block holds one compound with its values, some of them ahead of it.

How the values were obtained:
Staphylococcus aureus [1] = assay: Antibacterial activity against Staphylococcus aureus ATCC 6538 incubated for 6 to 8 hrs by microplate Alamar Blue assay; type: functional; conditions: time 6-8 hrs
Staphylococcus aureus [2] = assay: Antibacterial activity against methicillin-resistant Staphylococcus aureus incubated for 6 to 8 hrs by microplate Alamar Blue assay; type: functional; conditions: time 6-8 hrs
Enterococcus faecium [3] = assay: Antibacterial activity against Enterococcus faecium incubated for 6 to 8 hrs by microplate Alamar Blue assay; type: functional; conditions: time 6-8 hrs
Enterococcus faecium [4] = assay: Antibacterial activity against vancomycin-resistant Enterococcus faecium incubated for 6 to 8 hrs by microplate Alamar Blue assay; type: functional; conditions: time 6-8 hrs
MCF7 = assay: Cytotoxicity against human MCF7 cells assessed as cell growth inhibition incubated for 48 hrs by MTT assay; type: functional, cell-based; conditions: MCF7, 48 h
A549 = assay: Cytotoxicity against human A549 cells assessed as cell growth inhibition incubated for 48 hrs by MTT assay; type: functional, cell-based; conditions: A549, 48 h
[5] = Cytotoxicity against African green monkey Vero cells assessed as cell growth inhibition incubated for 48 hrs by MTT assay; type: toxicity, cell-based; conditions: African green monkey (Chlorocebus sabaeus)
HeLa = assay: Cytotoxicity against human HeLa cells assessed as cell growth inhibition incubated for 48 hrs by MTT assay; type: functional, cell-based
HepG2 = assay: Cytotoxicity against human HepG2 cells assessed as cell growth inhibition incubated for 48 hrs by MTT assay; type: functional, cell-based; conditions: HepG2, 48 h
[6] = Selectivity index, ratio of IC50 for cytotoxicity against African green monkey Vero cells to IC50 for cytotoxicity against human A549 cells; type: toxicity, cell-based; conditions: Vero cells and A549 cells, read-out: Ratio IC50

Compound: COc1cc(C)c(-c2cc(OC)cc3cc4c(c(O)c23)C(=O)c2c(O)cc(O)cc2C4(C)C)c(O)c1
MIC (Staphylococcus aureus [1]): 1.3 µg/mL (≈ 2.67 µM) | MIC (Staphylococcus aureus [2]): 1.3 µg/mL (≈ 2.67 µM) | MIC (Enterococcus faecium [3]): 1.3 µg/mL (≈ 2.67 µM) | MIC (Enterococcus faecium [4]): 1.3 µg/mL (≈ 2.67 µM)

Compound: COc1cc(C)c(-c2cc(O)c(Cl)c3cc4c(c(O)c23)C(=O)c2c(cc(OC)c(Cl)c2O)C4(C)C)c(O)c1
MIC (Staphylococcus aureus [1]): 2.5 µg/mL (≈ 4.5 µM) | MIC (Staphylococcus aureus [2]): 2.5 µg/mL (≈ 4.5 µM) | MIC (Enterococcus faecium [3]): 2.5 µg/mL (≈ 4.5 µM) | MIC (Enterococcus faecium [4]): 2.5 µg/mL (≈ 4.5 µM)

Compound: COc1cc(C)c(-c2cc(O)cc3cc4c(c(O)c23)C(=O)c2c(cc(OC)c(Cl)c2O)C4(C)C)c(O)c1
MIC (Staphylococcus aureus [1]): 2.5 µg/mL (≈ 4.8 µM) | MIC (Staphylococcus aureus [2]): 2.5 µg/mL (≈ 4.8 µM) | MIC (Enterococcus faecium [3]): 2.5 µg/mL (≈ 4.8 µM) | MIC (Enterococcus faecium [4]): 2.5 µg/mL (≈ 4.8 µM)

Compound: COc1cc(C)c(-c2cc(OC)cc3cc4c(c(O)c23)C(=O)c2c(O)cc(OC)cc2C4(C)C)c(O)c1
MIC (Staphylococcus aureus [1]): > 10 µg/mL | MIC (Staphylococcus aureus [2]): > 10 µg/mL | IC50 (MCF7): 6.2 µM | IC50 (A549): 4.6 µM | IC50 at 48 h [5]: 7.6 µM | MIC (Enterococcus faecium [3]): > 10 µg/mL | IC50 (HeLa): 6.7 µM | IC50 (HepG2): 2.7 µM

Compound: COc1cc(C)c(-c2cc(O)cc3cc4c(c(O)c23)C(=O)c2c(O)cc(OC)cc2C4(C)C)c(O)c1
MIC (Staphylococcus aureus [1]): 2.5 µg/mL (≈ 5.14 µM) | MIC (Staphylococcus aureus [2]): 2.5 µg/mL (≈ 5.14 µM) | IC50 (MCF7): 16.5 µM | IC50 (A549): 5.3 µM | IC50 at 48 h [5]: 6.7 µM | MIC (Enterococcus faecium [3]): 1.3 µg/mL (≈ 2.67 µM) | IC50 (HeLa): 6.5 µM | MIC (Enterococcus faecium [4]): 2.5 µg/mL (≈ 5.14 µM) | IC50 (HepG2): 7 µM

Compound: COc1cc(C)c(-c2cc(O)cc3cc4c(c(O)c23)C(=O)c2c(cc(OC)c(Br)c2O)C4(C)C)c(O)c1
MIC (Staphylococcus aureus [1]): 0.6 µg/mL (≈ 1.06 µM) | MIC (Staphylococcus aureus [2]): 0.6 µg/mL (≈ 1.06 µM) | IC50 (MCF7): 3.1 µM | IC50 (A549): 2.5 µM | IC50 at 48 h [5]: 2.8 µM | MIC (Enterococcus faecium [3]): 1.3 µg/mL (≈ 2.3 µM) | IC50 (HeLa): 4.1 µM | MIC (Enterococcus faecium [4]): 1.3 µg/mL (≈ 2.3 µM) | IC50 (HepG2): 3.5 µM

Compound: COc1cc(C)c(-c2cc(O)cc3cc4c(c(O)c23)C(=O)c2c(cc(OC)c(Br)c2OC)C4(C)C)c(O)c1
MIC (Staphylococcus aureus [1]): 5 µg/mL (≈ 8.63 µM) | MIC (Staphylococcus aureus [2]): 5 µg/mL (≈ 8.63 µM) | IC50 (MCF7): 8.6 µM | IC50 (A549): 4.7 µM | IC50 at 48 h [5]: 5.8 µM | MIC (Enterococcus faecium [3]): 5 µg/mL (≈ 8.63 µM) | IC50 (HeLa): 5.1 µM | MIC (Enterococcus faecium [4]): 5 µg/mL (≈ 8.63 µM) | IC50 (HepG2): 5.7 µM

Compound: COc1cc(-c2c(O)cc(OC)c(Cc3c(OC)cc(C)c(-c4cc(OC)cc5cc6c(c(O)c45)C(=O)c4c(O)cc(O)cc4C6(C)C)c3O)c2C)c2c(O)c3c(cc2c1)C(C)(C)c1cc(O)cc(O)c1C3=O
MIC (Staphylococcus aureus [1]): > 10 µg/mL | MIC (Staphylococcus aureus [2]): > 10 µg/mL | IC50 (MCF7): > 50 µM | IC50 (A549): > 50 µM | IC50 at 48 h [5]: > 50 µM | MIC (Enterococcus faecium [3]): > 10 µg/mL | IC50 (HeLa): > 50 µM | IC50 (HepG2): > 50 µM

Compound: COc1cc(C)c(-c2cc(OC)cc3cc4c(c(O)c23)C(=O)c2c(OC)cc(OC)cc2C4(C)C)c(O)c1
MIC (Staphylococcus aureus [1]): > 10 µg/mL | MIC (Staphylococcus aureus [2]): > 10 µg/mL | IC50 (MCF7): 9.2 µM | IC50 (A549): 6 µM | IC50 at 48 h [5]: 9 µM | MIC (Enterococcus faecium [3]): > 10 µg/mL | IC50 (HeLa): 7.7 µM | IC50 (HepG2): 5.8 µM

Compound: COC1=CC(=O)C(c2cc(OC)cc3cc4c(c(O)c23)C(=O)c2c(O)cc(O)cc2C4(C)C)=C(C)C1=O
MIC (Staphylococcus aureus [1]): > 10 µg/mL | MIC (Staphylococcus aureus [2]): > 10 µg/mL | IC50 (MCF7): 9.6 µM | IC50 (A549): 8.9 µM | IC50 at 48 h [5]: 15.1 µM | MIC (Enterococcus faecium [3]): > 10 µg/mL | IC50 (HeLa): 14.6 µM | IC50 (HepG2): 12.4 µM

Compound: COc1cc(-c2c(O)cc(OC)c(Cc3c(OC)cc(O)c(-c4cc(OC)cc5cc6c(c(O)c45)C(=O)c4c(O)cc(O)cc4C6(C)C)c3C)c2C)c2c(O)c3c(cc2c1)C(C)(C)c1cc(O)cc(O)c1C3=O
MIC (Staphylococcus aureus [1]): 2.5 µg/mL (≈ 2.54 µM) | MIC (Staphylococcus aureus [2]): 2.5 µg/mL (≈ 2.54 µM) | IC50 (MCF7): 17.2 µM | IC50 (A549): 5.7 µM | IC50 at 48 h [5]: 17.6 µM | MIC (Enterococcus faecium [3]): > 10 µg/mL | IC50 (HeLa): 15.8 µM | selectivity ratio [6]: 3 | IC50 (HepG2): 16.7 µM

Compound: COc1cc(C)c(-c2cc(OC)cc3cc4c(c(O)c23)C(=O)c2c(cc(O)c(Br)c2O)C4(C)C)c(O)c1
MIC (Staphylococcus aureus [1]): 1.3 µg/mL (≈ 2.3 µM) | MIC (Staphylococcus aureus [2]): 1.3 µg/mL (≈ 2.3 µM) | IC50 (MCF7): 8.9 µM | IC50 (A549): 3.3 µM | IC50 at 48 h [5]: 9 µM | MIC (Enterococcus faecium [3]): 1.3 µg/mL (≈ 2.3 µM) | IC50 (HeLa): 3.6 µM | MIC (Enterococcus faecium [4]): 2.5 µg/mL (≈ 4.42 µM) | IC50 (HepG2): 5.2 µM

Compound: COc1cc(C)c(-c2cc(O)c(Br)c3cc4c(c(O)c23)C(=O)c2c(cc(OC)c(Br)c2O)C4(C)C)c(O)c1
MIC (Staphylococcus aureus [1]): 1.3 µg/mL (≈ 2.02 µM) | MIC (Staphylococcus aureus [2]): 1.3 µg/mL (≈ 2.02 µM) | IC50 (MCF7): 4.6 µM | IC50 (A549): 2.8 µM | IC50 at 48 h [5]: 15.1 µM | MIC (Enterococcus faecium [3]): 2.5 µg/mL (≈ 3.88 µM) | IC50 (HeLa): 1.7 µM | MIC (Enterococcus faecium [4]): 2.5 µg/mL (≈ 3.88 µM) | IC50 (HepG2): 5.9 µM

Compound: COc1cc(C)c(C(=O)c2c(CC(C)=O)cc3c(c2O)C(=O)c2c(cc(OC)c(Br)c2OC)C3(C)C)c(OC)c1
MIC (Staphylococcus aureus [1]): > 10 µg/mL | MIC (Staphylococcus aureus [2]): > 10 µg/mL | IC50 (MCF7): 12.3 µM | IC50 (A549): 10.2 µM | IC50 at 48 h [5]: > 50 µM | MIC (Enterococcus faecium [3]): > 10 µg/mL | IC50 (HeLa): 12.6 µM | IC50 (HepG2): 13.6 µM

Compound: COc1cc(-c2c(O)cc(OC)c(OC)c2C)c2c(O)c3c(cc2c1)C(C)(C)c1cc(O)cc(O)c1C3=O
MIC (Staphylococcus aureus [1]): 5 µg/mL (≈ 9.68 µM) | MIC (Staphylococcus aureus [2]): 5 µg/mL (≈ 9.68 µM) | IC50 (MCF7): 12.3 µM | IC50 (A549): 6.3 µM | IC50 at 48 h [5]: 4.5 µM | MIC (Enterococcus faecium [3]): 5 µg/mL (≈ 9.68 µM) | IC50 (HeLa): 11.1 µM | MIC (Enterococcus faecium [4]): 5 µg/mL (≈ 9.68 µM) | IC50 (HepG2): 4.8 µM

Compound: COc1cc(C)c(-c2cc(OC)cc3cc4c(c(O)c23)C(=O)c2c(cc(OC)c(Br)c2O)C4(C)C)c(O)c1
MIC (Staphylococcus aureus [1]): > 10 µg/mL | MIC (Staphylococcus aureus [2]): > 10 µg/mL | IC50 (MCF7): 7.9 µM | IC50 (A549): 3.3 µM | IC50 at 48 h [5]: 7.3 µM | MIC (Enterococcus faecium [3]): > 10 µg/mL | IC50 (HeLa): 1.7 µM | IC50 (HepG2): 4.7 µM

Compound: COc1cc(C)c(-c2cc(OC)c(Br)c3cc4c(c(O)c23)C(=O)c2c(O)cc(O)cc2C4(C)C)c(O)c1
MIC (Staphylococcus aureus [1]): 1.3 µg/mL (≈ 2.3 µM) | MIC (Staphylococcus aureus [2]): 1.3 µg/mL (≈ 2.3 µM) | IC50 (MCF7): 5.3 µM | IC50 (A549): 3.1 µM | IC50 at 48 h [5]: 5.7 µM | MIC (Enterococcus faecium [3]): 1.3 µg/mL (≈ 2.3 µM) | IC50 (HeLa): 5.8 µM | MIC (Enterococcus faecium [4]): 1.3 µg/mL (≈ 2.3 µM) | IC50 (HepG2): 4.5 µM

Compound: COc1cccc2c1C(=O)c1c(O)c3c(c(O)c1C2=O)C[C@@](O)(C(=O)CO)C[C@@H]3O[C@H]1C[C@H](N)[C@H](O)[C@H](C)O1 [DOXORUBICIN HYDROCHLORIDE]
IC50 (A549): 0.7 µM | IC50 (HepG2): 0.8 µM

MIC (Staphylococcus aureus [1]): 1.3 µg/mL (≈ 2.68 µM)
Compound: NC[C@H]1O[C@H](O[C@H]2[C@H](O)[C@@H](O[C@H]3O[C@H](CO)[C@@H](O)[C@H](N)[C@H]3O)[C@H](N)C[C@@H]2N)[C@H](O)[C@@H](O)[C@@H]1O [KANAMYCIN]

Compound: CN[C@H](CC(C)C)C(=O)N[C@H]1C(=O)N[C@@H](CC(N)=O)C(=O)N[C@H]2C(=O)N[C@H]3C(=O)N[C@H](C(=O)N[C@H](C(=O)O)c4cc(O)cc(O)c4-c4cc3ccc4O)[C@H](O)c3ccc(c(Cl)c3)Oc3cc2cc(c3O[C@@H]2O[C@H](CO)[C@@H](O)[C@H](O)[C@H]2O[C@H]2C[C@](C)(N)[C@H](O)[C@H](C)O2)Oc2ccc(cc2Cl)[C@H]1O [VANCOMYCIN]
MIC (Staphylococcus aureus [2]): 0.6 µg/mL (≈ 0.414 µM) | MIC (Enterococcus faecium [3]): 1.3 µg/mL (≈ 0.897 µM) | MIC (Enterococcus faecium [4]): > 40 µg/mL
